In paper PMC3850926, “Evaluation of the adverse event profile and pharmacodynamics of toceranib phosphate administered to dogs with solid tumors at doses below the maximum tolerated dose” (BMC Veterinary Research, 2013):
Entries after “also recorded” stand apart in the source; their conditions may differ. Read-outs that look alike come from different tables or passages of the source.

How the values were obtained:
[1] = system: VEGF; test: Plasma VEGF concentrations (Canine VEGF Quantikine ELISA); type: in vivo, dog
Description: (§1) A total of 40 dogs were enrolled in this study, with dogs initially assigned to toceranib at 2.5 mg/kg or 2.75 mg/kg EOD. All dogs were placed on famotidine at 0.5-1 mg/kg once per day at study initiation and owners were instructed to administer the toceranib in the morning with food. Physical examination, routine bloodwork (CBC, biochemistry profile) and blood sampling for assessment of toceranib and VEGF plasma concentrations was performed pretreatment and on days 0, 7, 14 and 30 of treatment. […] Owners of dogs that experienced CR, PR, or SD at study day 30 were offered the option of continuing toceranib administration for an additional 6 months (provided at no cost), although patient data was not officially captured beyond day 30.
(§2) Blood was collected into EDTA tubes and centrifuged at 3000 × g for 10 minutes. Plasma was then collected and split evenly into two portions in cryovials, then stored at -80°C until analysis was performed for toceranib and VEGF concentrations.
A solid phase sandwich ELISA was used to measure plasma concentrations of VEGF. […] All standards and samples were performed in duplicate and the absorbance reading at […] was subtracted from the absorbance reading at […].
VEGF concentrations were analyzed in terms of percent change from baseline. […]

[2] = system: dogs with MCT; conditions: dog, in vivo, cited from earlier work
[3] = system: dogs with a variety of tumors; design: method as in PMID 12855656; conditions: cited from earlier work
[4] = system: target receptor tyrosine kinases; design: method as in PMID 12538485; conditions: established in rodent studies; cited from earlier work
[5] = cited from earlier work
[6] = system: AGASACA, thyroid carcinomas, head and neck carcinomas, nasal tumors; design: method as in PMID 22236194; conditions: median dose 2.8 mg/kg, cited from earlier work
[7] = system: KIT; conditions: dogs with MCT, 8 hours post drug administration; cited from earlier work
[8] = Toceranib plasma concentrations (LC-MS/MS) in dogs with solid tumors; type: in vivo, dog; conditions: for Cmax: dog, plasma, oral
Description: as §1, §2
Toceranib was quantitated in plasma samples using the method previously described. Briefly, 50 μL aliquots of plasma were fortified with an internal standard (IS), a deuterated toceranib analog. Toceranib and the IS were extracted from the plasma by protein precipitation using acetonitrile. The analyte and IS are light sensitive and undergo photoisomerization when exposed to light. Therefore, the 96-well plates were protected from light by wrapping the bottom and sides with foil and securing with adhesive tape. Calibration standards (1 to 1000 ng/mL) and quality control (QC) samples were prepared with separate weighing of toceranib reference material (Pfizer, Kalamazoo, MI, 98.1% purity). Standard and QC solutions were prepared by serially diluting a stock solution (100 μg/mL in methanol) into control canine plasma so that no standard or QC sample contained more that 1% methanol. Study samples were analyzed as single replicates.
The prepared samples were injected onto a Zorbax StableBond CN column and elution of toceranib and the IS accomplished with an acetonitrile:15 mM ammonium formate solution (pH 3.25) 30/70 v/v mobile phase with a 80/20 v/v rinse for 2.3 minutes at 5 minutes after each injection. Detection was accomplished using MS/MS using a Sciex 4000 triple-quadrupole mass spectrometer with Turboionspray ionization source (MDS Sciex, Toronto, Canada). Transition ions of m/z 397.2 → 283.2 for toceranib and 401.3 → 283.2 for the IS were used. The standard curves were generated using peak area ratios of toceranib to the IS and a 1/concentration^2 weighted quadratic regression. Toceranib concentrations were determined by interpolation over the quantitation range of 1.00 ng/mL to 1000 ng/mL.

Structure (SMILES): Cc1[nH]c(/C=C2\C(=O)Nc3ccc(F)cc32)c(C)c1C(=O)NCCN1CCCC1 [toceranib, Toceranib phosphate]
- change in plasma VEGF concentrations over the 30 day treatment period ([1]; 8 hours post dosing, days 0, 7, 14, 30, p < 0.001): increase significantly; also recorded: increased over time
- association of change in VEGF with Cmax and Tmax ([1]; linear mixed models): associated with Cmax (p < 0.001), but not Tmax (p = 0.74)
- dogs with dose changed (drug holiday and/or dose reduction) ([2]; 3.25 mg/kg): 48.3%
- dogs that had a dose reduction due to AEs [2]: approximately 20%
- complete responses, CR (number of dogs) ([3]; 2.5 mg/kg EOD, 16 dogs): 4
- objective response (number of dogs) ([3]; 2.5 mg/kg EOD, 16 dogs): 6 dogs
- objective response (percent) ([3]; 2.5 mg/kg EOD, 16 dogs): 37.5%
- partial responses, PR (number of dogs) ([3]; 2.5 mg/kg EOD, 16 dogs): 2
- stable disease, SD (number of dogs) ([3]; 2.5 mg/kg EOD, 16 dogs): 5 dogs
- CR (number of dogs) ([3]; 3.25 mg/kg EOD, 20 dogs): 2
- PR (number of dogs) ([3]; 3.25 mg/kg EOD, 20 dogs): 6
- objective response (number of dogs) ([3]; 3.25 mg/kg EOD, 20 dogs): 8
- plasma concentration threshold for receptor (target) inhibition in vivo [4]: 40 ng/mL
- dose proportionality of Cmax ([5]; healthy beagle dogs): proportional to doses ranging from 2.0 to 6.0 mg/kg
- time of maximum drug concentration (Tmax) ([5]; previous studies): 5.3 to 9.3 h
- time of Cmax post drug administration ([5]; prior studies): 6 to 8 h
- clinical benefit rate (CR + PR + SD) [6]: exceeding 80%
- objective response rates ([6]; varied by tumor type): 25-75%
- lowest plasma concentration with intratumoral target modulation (downregulation of KIT and/or ERK phosphorylation) [7]: 30 ng/mL
- course of presumed Cmax plasma concentration ([8]; EOD regimen, levels out by day 30): increased gradually in most dogs over the first 2 weeks of dosing
- dogs with Cmax at 12 hours (number) ([8]; day 30): 12 dogs
- reported Cmax as percent of the 12 hour concentration ([8]; day 30, the 12 dogs with Cmax at 12 hours): 51% to 98%
- Cmax ([8]; all dose ranges above 2.4 mg/kg, days 0, 7, 14, 30, read-out: median Cmax): > 40 ng/mL
- Cmax ([8]; dose ranges 2.4-2.9 mg/kg EOD, by day 30, read-out: mean presumed Cmax): 100 to 200 ng/mL
- Median plasma concentration measured at 6 or 8 hours, level after first two weeks ([8]; dogs dosed 2.4-2.9 mg/kg EOD): 100 to 120 ng/mL
- difference among dosing groups in 6 or 8 hour drug concentrations (presumed Cmax) ([8]; dogs dosed 2.4-2.9 mg/kg, each time point): no significant difference
- plasma drug concentration relative to the other dose groups ([8]; dogs dosed at 2.30-2.39 mg/kg (3 dogs)): lower concentrations of drug at all time points
- average 6–8 hr plasma concentration ([8]; dogs with solid tumors, 2.4-2.9 mg/kg every other day): 100 to 120 ng/mL
